Blank lines part the entries; values can stand above or below the compound they belong to.
Tests used:
[1] = tested on: HeLa cells (cervical cancer); assay: MTT antiproliferative assay, HeLa; type: cell-based, human; details: Homo sapiens, 72 h, read-out: Growth inhibition (%) ± SEM
Experimental: (§1) The in vitro antiproliferative activities of the synthesized aminodiols 4–38 against a panel of different human cancer cell lines of gynecological origin, including cervical (SiHA and HeLa), breast (MCF7 and MDA-MB-231), and ovary (A2780) cancers were assayed by the MTT method. […] Cisplatin, a clinically applied anticancer agent, was used as a reference compound and the results are summarized in Figure 3 and Table S1 in Supporting Information. […] On the other hand, none of the prepared azole derivatives exerted relevant activity.
(§2) The growth-inhibitory effects of the gibberellic acid-based aminodiol derivatives were determined by a standard MTT (3-(4,5-dimethylthiazol-2-yl)-2,5-diphenyltetrazolium bromide) assay on a panel containing five cell lines, including Hela and Siha (cervical cancers); MDA-MB-231 and MCF-7 (breast cancers); and A2780 ovarian cancer cells. The most promising agents were additionally tested against NIH/3T3 mouse embryo fibroblast cells. All cell lines were purchased from the European Collection of Cell Cultures (Salisbury, UK) except SiHa, which was obtained from the American Tissue Culture Collection (Manassas, VA, USA). The cells were maintained in minimal essential medium supplemented with 10% fetal bovine serum, 1% non-essential amino acids, and 1% penicillin-streptomycin at 37 °C in a humidified atmosphere containing 5% CO2. All media and supplements were obtained from Lonza Group Ltd., (Basel, Switzerland). Cancer cells were seeded into 96-well plates (5000 cells/well), after an overnight incubation the test compound was added in 2 different concentrations (10 µM and 30 µM) and incubated for another 72 h under cell-culturing conditions. Then, 20 μL of 5 mg/mL MTT solution was added to each well and incubated for a further 4 h. The medium was removed, and the precipitated formazan crystals were dissolved in DMSO during 60 min of shaking at 37 °C. As the final step, the absorbance was measured at 545 nm by using a microplate reader (SPECTROStar Nano, BMG Labtech, Offenburg, Germany). Untreated cells were included as controls. […] These agents were additionally tested against NIH/3T3 fibroblasts to obtain results about their cancer selectivity. Two independent experiments were performed with five wells for each condition. Cisplatin (Ebewe GmbH, Unterach, Austria), a clinically used anticancer agent, was used as a positive control. Calculations were performed utilizing the GraphPad Prism 5.01 software (GraphPad Software Inc., San Diego, CA, USA).

[2] = tested on: SiHa cells (cervical cancer); assay: MTT antiproliferative assay, SiHa; type: cell-based, human; details: Homo sapiens, 72 h, read-out: Growth inhibition (%) ± SEM
Experimental: as §1, §2

[3] = tested on: MDA-MB-231 cells (breast cancer); assay: MTT antiproliferative assay, MDA-MB-231; type: cell-based, human; details: Homo sapiens, 72 h, read-out: Growth inhibition (%) ± SEM; for inhibition at 10 µM: MDA-MB-231, 10 μM; for inhibition at 30 µM: MDA-MB-231, 30 μM
Experimental: as §1, §2

[4] = tested on: A2780 ovarian cancer cells; assay: MTT antiproliferative assay, A2780; type: cell-based, human; details: Homo sapiens, 72 h, read-out: Growth inhibition (%) ± SEM; for inhibition at 10 µM: A2780, 10 μM; for inhibition at 30 µM: A2780, 30 μM
Experimental: as §1, §2

melting point: 97 to 99 °C
SMILES: CCOC(=O)[C@H]1c2c(C)cccc2[C@H]2CC[C@]3(O)C[C@@]21C[C@]3(O)CNCc1ccccc1 [Compound 4, Ethyl (4bS,7S,8S,9aR,10R)-8-((benzylamino)methyl)-7,8-dihydroxy-1-methyl-4b,6,7,8,9,10-hexahydro-5H-7,9a-methanobenzo[a]azulene-10-carboxylate]
inhibition at 10 µM [1]: 26.9 ± 1.55% | inhibition at 30 µM [1]: 25.9 ± 3.2% | inhibition at 10 µM [2]: 23.3 ± 0.63% | inhibition at 30 µM [2]: 57 ± 1.16% | inhibition at 10 µM [3]: < 20% | inhibition at 30 µM [3]: 31.6 ± 1.49% | inhibition at 10 µM [4]: < 20% | inhibition at 30 µM [4]: 49.9 ± 1.76%

melting point: 104 to 105 °C
SMILES: CCOC(=O)[C@H]1c2c(C)cccc2[C@H]2CC[C@]3(O)C[C@@]21C[C@]3(O)CN[C@H](C)c1ccccc1 [Compound 6, Ethyl (4bS,7S,8S,9aR,10R)-7,8-dihydroxy-1-methyl-8-((((R)-1-phenylethyl)amino)methyl)-4b,6,7,8,9,10-hexahydro-5H-7,9a-methanobenzo[a]azulene-10-carboxylate]
inhibition at 10 µM [1]: 21.4 ± 1.7% | inhibition at 30 µM [1]: 63.1 ± 1.81% | inhibition at 10 µM [2]: < 20% | inhibition at 30 µM [2]: 65.9 ± 2.48% | inhibition at 10 µM [3]: < 20% | inhibition at 30 µM [3]: 85.1 ± 1.38% | inhibition at 10 µM [4]: 25.3 ± 0.27% | inhibition at 30 µM [4]: 61.9 ± 1.25%

melting point: 55 to 57 °C
SMILES: CCOC(=O)[C@H]1c2c(C)cccc2[C@H]2CC[C@]3(O)C[C@@]21C[C@]3(O)CN[C@H](CC)c1ccccc1 [Compound 7, Ethyl (4bS,7S,8S,9aR,10R)-7,8-dihydroxy-1-methyl-8-((((R)-1-phenylpropyl)amino)methyl)-4b,6,7,8,9,10-hexahydro-5H-7,9a-methanobenzo[a]azulene-10-carboxylate]
inhibition at 10 µM [1]: < 20% | inhibition at 30 µM [1]: 45 ± 0.97% | inhibition at 10 µM [2]: 28.9 ± 1.16% | inhibition at 30 µM [2]: 94.3 ± 1.48% | inhibition at 10 µM [3]: < 20% | inhibition at 30 µM [3]: 70.38 ± 0.07% | inhibition at 10 µM [4]: < 20% | inhibition at 30 µM [4]: 65 ± 2.44%

melting point: 114 to 115 °C
SMILES: CCOC(=O)[C@H]1c2c(C)cccc2[C@H]2CC[C@]3(O)C[C@@]21C[C@]3(O)CN[C@@H](CC)c1ccccc1 [Compound 8, Ethyl (4bS,7S,8S,9aR,10R)-7,8-dihydroxy-1-methyl-8-((((S)-1-phenylpropyl)amino)methyl)-4b,6,7,8,9,10-hexahydro-5H-7,9a-methanobenzo[a]azulene-10-carboxylate]
inhibition at 10 µM [1]: 27.5 ± 0.41% | inhibition at 30 µM [1]: 98.05 ± 0.07% | inhibition at 10 µM [2]: 29.7 ± 1.54% | inhibition at 30 µM [2]: 98.38 ± 0.44% | inhibition at 10 µM [3]: < 20% | inhibition at 30 µM [3]: 97.52 ± 0.67% | inhibition at 10 µM [4]: 39.5 ± 1.27% | inhibition at 30 µM [4]: 96.38 ± 0.13%

melting point: 253 to 254 °C
SMILES: CCOC(=O)[C@H]1c2c(C)cccc2[C@H]2CC[C@]3(O)C[C@@]21C[C@]3(O)CNCc1ccc(F)cc1 [Compound 9, Ethyl (4bS,7S,8S,9aR,10R)-8-(((4-fluorobenzyl)amino)methyl)-7,8-dihydroxy-1-methyl-4b,6,7,8,9,10-hexahydro-5H-7,9a-methanobenzo[a]azulene-10-carboxylate]
inhibition at 10 µM [1]: < 20% | inhibition at 30 µM [1]: 30.6 ± 4.19% | inhibition at 10 µM [2]: 26.6 ± 1.02% | inhibition at 30 µM [2]: 53.6 ± 1.92% | inhibition at 10 µM [3]: < 20% | inhibition at 30 µM [3]: < 20% | inhibition at 10 µM [4]: < 20% | inhibition at 30 µM [4]: 45.8 ± 1.62%

melting point: 84 to 86 °C
SMILES: CCOC(=O)[C@H]1c2c(C)cccc2[C@H]2CC[C@]3(O)C[C@@]21C[C@]3(O)CN[C@@H](C)c1ccc(F)cc1 [Compound 10, Ethyl (4bS,7S,8S,9aR,10R)-8-((((S)-1-(4-fluorophenyl)ethyl)amino)methyl)-7,8-dihydroxy-1-methyl-4b,6,7,8,9,10-hexahydro-5H-7,9a-methanobenzo[a]azulene-10-carboxylate]
inhibition at 10 µM [1]: 38.5 ± 2.02% | inhibition at 30 µM [1]: 97.93 ± 0.11% | inhibition at 10 µM [2]: 39.1 ± 1.82% | inhibition at 30 µM [2]: 97.08 ± 0.08% | inhibition at 10 µM [3]: 31.2 ± 0.77% | inhibition at 30 µM [3]: 94.5 ± 1.05% | inhibition at 10 µM [4]: 22.2 ± 1.93% | inhibition at 30 µM [4]: 96.46 ± 0.76%

melting point: 102 to 103 °C
SMILES: CCOC(=O)[C@H]1c2c(C)cccc2[C@H]2CC[C@]3(O)C[C@@]21C[C@]3(O)CNC(C)C [Compound 19, Ethyl (4bS,7S,8S,9aR,10R)-7,8-dihydroxy-8-((isopropylamino)methyl)-1-methyl-4b,6,7,8,9,10-hexahydro-5H-7,9a-methanobenzo[a]azulene-10-carboxylate]

melting point: 111 to 112 °C
SMILES: C#CCNC[C@@]1(O)C[C@]23C[C@@]1(O)CC[C@@H]2c1cccc(C)c1[C@@H]3C(=O)OCC [Compound 20, Ethyl (4bS,7S,8S,9aR,10R)-7,8-dihydroxy-1-methyl-8-((prop-2-yn-1-ylamino)methyl)-4b,6,7,8,9,10-hexahydro-5H-7,9a-methanobenzo[a]azulene-10-carboxylate]

Continued, compound first:

SMILES: CCOC(=O)[C@H]1c2c(C)cccc2[C@H]2CC[C@]3(O)C[C@@]21C[C@]3(O)CN[C@@H](C)c1ccccc1 [Compound 5, Ethyl (4bS,7S,8S,9aR,10R)-7,8-dihydroxy-1-methyl-8-((((S)-1-phenylethyl)amino)methyl)-4b,6,7,8,9,10-hexahydro-5H-7,9a-methanobenzo[a]azulene-10 carboxylate]
inhibition at 10 µM [1]: 22.3 ± 5.01% | inhibition at 30 µM [1]: 51 ± 9.48% | inhibition at 10 µM [2]: < 20% | inhibition at 30 µM [2]: 48.3 ± 4.04% | inhibition at 10 µM [3]: < 20% | inhibition at 30 µM [3]: 64.9 ± 1.91% | inhibition at 10 µM [4]: 30.42 ± 0.22% | inhibition at 30 µM [4]: 51.6 ± 2.69%

SMILES: CCOC(=O)[C@H]1c2c(C)cccc2[C@H]2CC[C@]3(O)C[C@@]21C[C@]3(O)CN1CCCCC1 [Compound 21, Ethyl (4bS,7S,8S,9aR,10R)-7,8-dihydroxy-1-methyl-8-(piperidin-1-ylmethyl)-4b,6,7,8,9,10-hexahydro-5H-7,9a-methanobenzo[a]azulene-10-carboxylate]
melting point: 84 to 86 °C

SMILES: CCOC(=O)[C@H]1c2c(C)cccc2[C@H]2CC[C@]3(O)C[C@@]21C[C@]3(O)CN1CCN(C)CC1 [Compound 22, Ethyl (4bS,7S,8S,9aR,10R)-7,8-dihydroxy-1-methyl-8-((4-methylpiperazin-1-yl)methyl)-4b,6,7,8,9,10-hexahydro-5H-7,9a-methanobenzo[a]azulene-10-carboxylate]
melting point: 42 to 45 °C

SMILES: CCOC(=O)[C@H]1c2c(C)cccc2[C@H]2CC[C@]3(O)C[C@@]21C[C@]3(O)Cn1cncn1 [Compound 28, Ethyl (4bS,7S,8S,9aR,10R)-8-((1H-1,2,4-triazol-1-yl)methyl)-7,8-dihydroxy-1-methyl-4b,6,7,8,9,10-hexahydro-5H-7,9a-methanobenzo[a]azulene-10-carboxylate]
melting point: 87 to 89 °C

SMILES: CCOC(=O)[C@H]1c2c(C)cccc2[C@H]2CC[C@]3(O)C[C@@]21C[C@]3(O)Cn1ccnn1 [Compound 29, Ethyl (4bS,7S,8S,9aR,10R)-8-((1H-1,2,3-triazol-1-yl)methyl)-7,8-dihydroxy-1-methyl-4b,6,7,8,9,10-hexahydro-5H-7,9a-methanobenzo[a]azulene-10-carboxylate]
melting point: 90 to 92 °C

SMILES: CCOC(=O)[C@@H]1c2c(C)cccc2C2CC[C@]3(O)C[C@@]21C[C@]3(O)CN[C@@H](C)c1cccc2ccccc12 (stereo partly drawn) [Compound 36, Ethyl (7S,8S,9aR,10S)-7,8-dihydroxy-1-methyl-8-((((S)-1-(naphthalen-1-yl)ethyl)amino)methyl)-4b,6,7,8,9,10-hexahydro-5H-7,9a-methanobenzo[a]azulene-10-carboxylate]
inhibition at 10 µM [1]: 31.1 ± 2.01% | inhibition at 30 µM [1]: 95.4 ± 2.87% | inhibition at 10 µM [2]: 31.4 ± 1.21% | inhibition at 30 µM [2]: 97.69 ± 0.58% | inhibition at 10 µM [3]: 46.9 ± 1.05% | inhibition at 30 µM [3]: 95.53 ± 0.83% | inhibition at 10 µM [4]: 46.7 ± 1.46% | inhibition at 30 µM [4]: 94.81 ± 0.11%

SMILES: CCOC(=O)[C@@H]1c2c(C)cccc2C2CC[C@]3(O)C[C@@]21C[C@]3(O)CN[C@H](C)c1cccc2ccccc12 (stereo partly drawn) [Compound 37, Ethyl (7S,8S,9aR,10S)-7,8-dihydroxy-1-methyl-8-((((R)-1-(naphthalen-1-yl)ethyl)amino)methyl)-4b,6,7,8,9,10-hexahydro-5H-7,9a-methanobenzo[a]azulene-10-carboxylate]
inhibition at 10 µM [1]: 35.8 ± 0.42% | inhibition at 30 µM [1]: 97.35 ± 0.69% | inhibition at 10 µM [2]: 34.5 ± 1.89% | inhibition at 30 µM [2]: 97.58 ± 0.47% | inhibition at 10 µM [3]: < 20% | inhibition at 30 µM [3]: 96.64 ± 0.17% | inhibition at 10 µM [4]: 35.9 ± 0.89% | inhibition at 30 µM [4]: 96 ± 0.99%

Source: paper PMC9499365, “Stereoselective Synthesis and Application of Gibberellic Acid-Derived Aminodiols” (International Journal of Molecular Sciences, 2022)
